Values of other authors, collected in patent publication US20160101140A1, “Method for Processing Rosaceous Kernels” (priority 2014, published 2016).

Test system: tumors
Details: finding of Sugiura

For `N#C[C@H](O[C@@H]1O[C@H](CO[C@@H]2O[C@H](CO)[C@@H](O)[C@H](O)[C@H]2O)[C@@H](O)[C@H](O)[C@H]1O)c1ccccc1` [Vit B17, amygdalin], the “occurrence of a cancer” value is given as “can inhibit an occurrence of a cancer”, the “pain caused by the cancer” value is given as “can lessen the pain caused by the cancer” and the anti-cancer activity (background section) is given as “had anti-cancer activity”. The “inhibition of secondary tumors” value (mice) was “inhibited secondary tumors in mice”.
